The values below come from patent US9656962B2, “Ring-contracted morphinans and the use thereof” (Purdue Pharma L.P., priority 2013, dated 2017).

For assay [1], the target named is recombinant human kappa opioid receptor (κ) (Homo sapiens (Human), UniProt P41145). The assay is described as follows: κ-opioid receptor radioligand binding assay ([3H]-U69,593). The settings on record: binding affinity. How it is done: κ-Opioid Receptor Binding Assay Procedures: Membranes from HEK-293 cells, CHO cells or U-2 OS cells expressing the recombinant human kappa opioid receptor (κ) were prepared by lysing cells in ice cold hypotonic buffer (2.5 mM MgCl2, 50 mM HEPES, pH 7.4) (10 mL/10 cm dish) followed by homogenization with a tissue grinder/Teflon pestle. Membranes from a cell line naturally expressing kappa opioid receptor can also be used. Membranes were collected by centrifugation at 30,000×g for 15 min at 4° C. and pellets were resuspended in hypotonic buffer to a final concentration of 1-3 mg/mL. Protein concentrations were determined using the BioRad protein assay reagent with bovine serum albumen as standard. Aliquots of κ receptor membranes were stored at −80° C.
Radioligand dose displacement assays used 0.4 nM [^3H]-U69,593 (GE Healthcare, Piscataway, N.J.; 40 Ci/mmole) with 15 μg membrane protein (recombinant opioid receptor expressed in HEK 293 cells; in-house prep) in a final volume of 200 μl binding buffer (5% DMSO, 50 mM Trizma base, pH 7.4). Non-specific binding was determined in the presence of 10 μM unlabeled naloxone or U69,593. All reactions were performed in 96-well polypropylene plates for 1 hour at a temperature of about 25° C. Binding reactions were terminated by rapid filtration onto 96-well Unifilter GF/C filter plates (Perkin Elmer, Shelton, Conn.) presoaked in 0.5% polyethylenimine (Sigma). Harvesting was performed using a 96-well tissue harvester (Perkin Elmer, Shelton, Conn.) followed by five filtration washes with 200 μl ice-cold binding buffer. Filter plates were subsequently dried at 50° C. for 1-2 hours. Fifty μl/well scintillation cocktail (Perkin Elmer, Shelton, Conn.) was added and plates were counted in a Packard Top-Count for 1 min/well.

Assay [2] addresses T1, κ-opioid receptor (Homo sapiens (Human), UniProt P41145). The assay is described as follows: κ-opioid receptor [35S]GTPγS functional assay, U-2 OS cells (Table 5). The format is biochemical. The method, boiled down:
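[35S]GTPγS binding in κ receptor membranes (0.026 μg/μl protein) with 10 μg/mL saponin, 3 μM GDP and 0.20 nM [35S]GTPγS in pH 7.4 HEPES/NaCl/MgCl2 buffer. Agonist incubation lasted 30 min at about 25 °C, followed by filtration and scintillation counting. Emax is expressed relative to U69,593.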

Assay [3] deals with T1, κ-opioid receptor. The assay can be described thus: κ-opioid receptor [35S]GTPγS functional assay, HEK-293 or CHO cells (Table 4). Type of assay: biochemical. (In general: Binding of GTPγS marks nucleotide exchange on a G protein.)
Assay [4] concerns the target human opioid receptor-like receptor (ORL-1) (Homo sapiens (Human), UniProt P41146). The assay is described as follows: ORL-1 receptor radioligand binding assay ([3H]-nociceptin). The settings on record: binding affinity, read-out: Ki (nM) ORL-1. The procedure:
ORL-1 Receptor Binding Assay Procedure: Membranes from recombinant HEK-293 cells expressing the human opioid receptor-like receptor (ORL-1) (Perkin Elmer, Shelton, Conn.) was prepared by lysing cells in ice-cold hypotonic buffer (2.5 mM MgCl2, 50 mM HEPES, pH 7.4) (10 ml/10 cm dish) followed by homogenization with a tissue grinder/Teflon pestle. Membranes were collected by centrifugation at 30,000×g for 15 min at 4° C. and pellets resuspended in hypotonic buffer to a final concentration of 1-3 mg/ml. Protein concentrations were determined using the BioRad protein assay reagent with bovine serum albumen as standard. Aliquots of the ORL-1 receptor membranes were stored at −80° C.
Radioligand binding assays (screening and dose-displacement) use 0.1 nM [^3H]-nociceptin (Perkin Elmer, Shelton, Conn.; 87.7 Ci/mmole) with 12 μg membrane protein in a final volume of 500 μl binding buffer (10 mM MgCl2, 1 mM EDTA, 5% DMSO, 50 mM HEPES, pH 7.4). Non-specific binding was determined in the presence of […] unlabeled nociceptin (American Peptide Company). […] Fifty μl/well scintillation cocktail (Perkin Elmer, Shelton, Conn.) was added and plates are counted in a Packard Top-Count for 1 min/well. The data from screening and dose-displacement experiments were analyzed using Microsoft Excel and the curve fitting functions in GraphPad PRISM™, v. […]

The target in assay [5] is T2, μ-opioid receptor (Homo sapiens (Human), UniProt P35372). The assay is described as follows: μ-opioid receptor [35S]GTPγS functional assay, U-2 OS cells (Table 5). Type of assay: biochemical. The settings on record: relative to DAMGO. The essentials:
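Membranes (0.026 mg/mL) from cells expressing recombinant human μ-opioid receptor in a U-2 OS background were incubated with 0.20 nM [35S]GTPγS, 3 mM GDP and saponin in 20 mM HEPES pH 7.4, 100 mM NaCl, 10 mM MgCl2 for 30 min at about 25 °C. Filter-bound radioactivity counted; sigmoidal dose-response fits gave values, Emax relative to DAMGO.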

Assay [6] concerns the target T2, μ-opioid receptor. The assay is described as follows: μ-opioid receptor [35S]GTPγS functional assay, HEK-293 or CHO cells (Table 4). The format is biochemical. The settings on record: relative to DAMGO. The essentials: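 Membranes from HEK-293, CHO or U-2 OS cells (or commercial) expressing recombinant μ receptor; 0.20 nM [35S]GTPγS, 3 mM GDP, saponin, in 100 mM NaCl/10 mM MgCl2/20 mM HEPES pH 7.4.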

In assay [7] the target is T2, μ-opioid receptor. The assay can be described thus: μ-opioid receptor [35S]GTPγS functional assay, HEK-293 cells (Table 6). Type of assay: biochemical. The essentials: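 [35S]GTPγS (0.20 nM) binding in HEK-293 membranes expressing recombinant receptor (0.026 mg/mL protein), with GDP (3 mM) and saponin, HEPES buffer pH 7.4, 30 min at about 25° C. Bound radioactivity collected by filtration and counted. Emax (%) expressed relative to DAMGO from sigmoidal dose-response fits.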

Assay [8] deals with T1, κ-opioid receptor. The assay is described as follows: κ-opioid receptor [35S]GTPγS functional assay, HEK-293 cells (Table 6). The format is biochemical. How it is done: κ-Opioid Receptor Functional Assay Procedures: Functional [^35S]GTPγS binding assays were conducted as follows. κ opioid receptor membrane solution was prepared by sequentially adding final concentrations of 0.026 μg/μl κ membrane protein (in-house), 10 μg/mL saponin, 3 μM GDP and 0.20 nM [^35S]GTPγS to binding buffer (100 mM NaCl, 10 mM MgCl2, 20 mM HEPES, pH 7.4) on ice. The prepared membrane solution (190 μl/well) was transferred to 96-shallow well polypropylene plates containing 10 μl of 20× concentrated stock solutions of agonist prepared in DMSO. Plates were incubated for 30 min at a temperature of about 25° C. with shaking. Reactions were terminated by rapid filtration onto 96-well Unifilter GF/B filter plates (Perkin Elmer, Shelton, Conn.) using a 96-well tissue harvester (Packard) and followed by three filtration washes with 200 μl ice-cold binding buffer (10 mM NaH2PO4, 10 mM Na2HPO4, pH 7.4). Filter plates were subsequently dried at 50° C. for 2-3 hours. Fifty μl/well scintillation cocktail (Perkin Elmer, Shelton, Conn.) was added and plates were counted in a Packard Top-Count for 1 min/well. […]
The following TABLE 6 provides results on the activity response of certain Compounds of the Invention at the μ- and κ-opioid receptors determined as described above using HEK-293 cells.

SMILES strings stand for the structures.

One may read the Ki as the equilibrium dissociation constant of an inhibitor or competing ligand from its target. As usually defined, the Emax is the maximal effect, on the per cent scale that the assay sets. One may read the EC50 as the concentration at which the effect is half-maximal. Lower therefore signals greater potency. As to `N=C(N)NCCNC(=O)[C@@H]1C[C@]23CCN(CC4CC4)[C@H](Cc4ccc(O)cc42)[C@]3(O)C1` [Compound 6, (2R,3aS,4R,9bS)-12-(cyclopropylmethyl)-N-(2-guanidinoethyl)-3a,8-dihydroxy-1,2,3,3a,4,5-hexahydro-4,9b-(epimino-ethano)cyclopenta[a]naphthalene-2-carboxamide], the Ki in assay [1] was 0.098 ± 0.032 nM; in assay [4], 10300 ± 2140 nM. For the same molecule, the Emax at κ-opioid receptor [2] (relative to U69,593) came to 98 ± 3.21%; on κ-opioid receptor [3] (relative to U69,593), 48.6 ± 0.98%; on μ-opioid receptor [5] it was 57 ± 2.08%; on μ-opioid receptor [6], 0%. The half-maximal effective concentration (EC50) at κ-opioid receptor [2] (κ GTP) stood at 0.87 ± 0.16 nM; at κ-opioid receptor [3] (κ GTP), 0.86 ± 0.16 nM.

Regarding `CN1CC[C@]23C[C@H](C(=O)NCCc4ccccc4)C[C@@]2(O)[C@H]1Cc1ccc(O)cc13` [Compound 108, (2S,3aS,4R,9bS)-3a,8-dihydroxy-12-methyl-N-phenethyl-1,2,3,3a,4,5-hexahydro-4,9b-(epiminoethano)cyclo-penta[a]naphthalene-2-carboxamide], the Emax turned out to be 83.3 ± 5.17% at μ-opioid receptor [7] (relative to DAMGO) and 40.6 ± 3.3% on κ-opioid receptor [8] (relative to U69,593). Besides, the concentration for a half-maximal effect (EC50) at μ-opioid receptor [7] (μ GTP) amounted to 12.4 ± 2.76 nM; on κ-opioid receptor [8] (κ GTP) it was 138 ± 35 nM. The inhibition constant Ki in assay [1] came out at 9.29 ± 2.14 nM.
